{"source": "paper PMC8413292", "about": "“Small-molecule polymerase inhibitor protects non-human primates from measles and reduces shedding” (Nature Communications, 2021)", "key": {"[1]": {"tested_on": "MV/FrankfurtMain.DEU/17.11 (genotype D8)", "experiment": "Throat swab virus titers (shed virus, limited dilution)", "type": "in vivo, squirrel monkeys (Saimiri sciureus)", "experimental": "White blood cell counts, viral load quantification in PBMCs, and quantification of neutralizing antibody titers were performed as follows: for white blood cell counts, blood was diluted 1:100 in 3% acetic acid and cells were counted using a Neubauer chamber. For viral load quantification in PBMCs, blood was centrifuged at 3000 rpm for 15 min and serum was frozen at −20 °C until further use. Red blood cell lysis was performed and the remaining PBMCs were counted using a Neubauer chamber. Viral titers in PBMCs were quantified in quadruplicates using limited dilution method and calculated as TCID50/10^6 PBMCs. Neutralizing antibody titers were quantified by incubating MeV with 2-fold serial dilutions of the respective serum for 20 min at room temperature in quadruplicates. Vero/hSLAM cells were added and incubated for 3 days at 37 °C. Neutralizing antibody titers are expressed as the reciprocal of the highest serum dilution showing no signs of infection. For virus titration from throat swabs, swabs were placed in 150 μl DMEM with 3% penicillin/streptomycin and the titer was quantified by limited dilution method."}, "[2]": {"tested_on": "MV/FrankfurtMain.DEU/17.11 (genotype D8)", "experiment": "Rectal temperature of MeV-infected squirrel monkeys", "type": "in vivo, squirrel monkeys (Saimiri sciureus)", "experimental": "All animal experiments were carried out in compliance with the regulations of German animal protection laws and authorized by the Regierungspräsidium Darmstadt, Germany (Dezernat V54 – Veterinärwesen und Verbraucherschutz, Hilpertstrasse 31, 64295 Darmstadt). Adult male and female squirrel monkeys (Saimiri sciureus) were obtained from BioPRIM, 31450 Baziege, or CNRS 0846 Primatologie, 13790 Rousset, France. Each experimental group was housed in a separate room, and animals of the same sex were caged together within the respective groups. For the single-dose pharmacokinetic experiment, animals were anesthetized, and the drug was given through a stomach tube at a concentration of 50 mg/kg bodyweight. Blood samples were collected after 15, 30, and 60 min, and 2, 3, 6, and 24 h. For efficacy assessment, groups of 6 animals were left untreated or treated with 50 mg/kg of ERDRP-0519 twice daily for two weeks, starting either 12 h before or 3 or 7 days after intranasal infection with 10^6 TCID50 of MV/FrankfurtMain.DEU/17.11. Clinical signs, rectal temperature, and weight were recorded daily, and throat swabs and blood samples were collected before infection and twice weekly thereafter. On day 21 post-infection, the animals were euthanized, necropsied, and samples were collected for histological analysis."}}, "note": "Several values for one entry are separate records, joined by “and”; a condition that tells them apart may be missing. Identical values can stand only once.", "data": [{"smiles": "Cn1nc(C(F)(F)F)cc1C(=O)Nc1ccc(S(=O)(=O)N2CCCC[C@H]2CCN2CCOCC2)cc1", "note": "[ERDRP-0519]", "values": [{"measurement": "drop of shed virus titers (throat swab) compared to untreated animals", "setting": "[1]; day 7 therapeutic group, within 72 h of treatment initiation", "value": "dropped significantly (p = 0.0199) by two orders of magnitude"}, {"measurement": "Swab Titration, group mean (Mean 2)", "setting": "[1]; prophylactic, Row 1 (0 d)", "value": "0 log10(TCID50/ml)"}, {"measurement": "Swab Titration, group mean (Mean 2)", "setting": "[1]; prophylactic, Row 2 (3 d)", "value": "0 log10(TCID50/ml)"}, {"measurement": "Swab Titration, group mean (Mean 2)", "setting": "[1]; prophylactic, Row 3 (7 d)", "value": "0 log10(TCID50/ml)"}, {"measurement": "Swab Titration, group mean (Mean 2)", "setting": "[1]; prophylactic, Row 4 (10 d)", "value": "0.4498 log10(TCID50/ml)"}, {"measurement": "Swab Titration, group mean (Mean 2)", "setting": "[1]; prophylactic, Row 5 (14 d)", "value": "0 log10(TCID50/ml)"}, {"measurement": "Swab Titration, group mean (Mean 2)", "setting": "[1]; prophylactic, Row 6 (17 d)", "value": "0.1165 log10(TCID50/ml)"}, {"measurement": "Viral titers (throat swab), individual animals", "setting": "[1]; prophylactic, time 10 d", "value": "2.699 log10(TCID50/ml)"}, {"measurement": "Viral titers (throat swab), individual animals", "setting": "[1]; prophylactic, time 17 d", "value": "0.699 log10(TCID50/ml)"}, {"measurement": "Swab Titration, group mean (Mean 2)", "setting": "[1]; therapeutic (d3), Row 1 (0 d)", "value": "0 log10(TCID50/ml)"}, {"measurement": "Swab Titration, group mean (Mean 2)", "setting": "[1]; therapeutic (d3), Row 2 (3 d)", "value": "0 log10(TCID50/ml)"}, {"measurement": "Swab Titration, group mean (Mean 2)", "setting": "[1]; therapeutic (d3), Row 3 (7 d)", "value": "0.7332 log10(TCID50/ml)"}, {"measurement": "Swab Titration, group mean (Mean 2)", "setting": "[1]; therapeutic (d3), Row 4 (10 d)", "value": "1.153 log10(TCID50/ml)"}, {"measurement": "Swab Titration, group mean (Mean 2)", "setting": "[1]; therapeutic (d3), Row 5 (14 d)", "value": "0 log10(TCID50/ml)"}, {"measurement": "Swab Titration, group mean (Mean 2)", "setting": "[1]; therapeutic (d3), Row 6 (17 d)", "value": "0 log10(TCID50/ml)"}, {"measurement": "Viral titers (throat swab), individual animals", "setting": "[1]; therapeutic (d3), time 7 d", "value": "0.699 log10(TCID50/ml) and 2 log10(TCID50/ml) and 1.699 log10(TCID50/ml)"}, {"measurement": "Viral titers (throat swab), individual animals", "setting": "[1]; therapeutic (d3), time 10 d", "value": "1.477 log10(TCID50/ml) (3×) and 2.477 log10(TCID50/ml)"}, {"measurement": "Swab Titration, group mean (Mean 2)", "setting": "[1]; therapeutic (d7), Row 1 (0 d)", "value": "0 log10(TCID50/ml)"}, {"measurement": "Swab Titration, group mean (Mean 2)", "setting": "[1]; therapeutic (d7), Row 2 (3 d)", "value": "0 log10(TCID50/ml)"}, {"measurement": "Swab Titration, group mean (Mean 2)", "setting": "[1]; therapeutic (d7), Row 3 (7 d)", "value": "2.207 log10(TCID50/ml)"}, {"measurement": "Swab Titration, group mean (Mean 2)", "setting": "[1]; therapeutic (d7), Row 4 (10 d)", "value": "0.9798 log10(TCID50/ml)"}, {"measurement": "Swab Titration, group mean (Mean 2)", "setting": "[1]; therapeutic (d7), Row 5 (14 d)", "value": "0 log10(TCID50/ml)"}, {"measurement": "Swab Titration, group mean (Mean 2)", "setting": "[1]; therapeutic (d7), Row 6 (17 d)", "value": "0 log10(TCID50/ml)"}, {"measurement": "Viral titers (throat swab), individual animals", "setting": "[1]; therapeutic (d7), time 7 d", "value": "3.477 log10(TCID50/ml) and 2.699 log10(TCID50/ml) (2×) and 2.176 log10(TCID50/ml) (2×)"}, {"measurement": "Viral titers (throat swab), individual animals", "setting": "[1]; therapeutic (d7), time 10 d", "value": "1.699 log10(TCID50/ml) and 1.477 log10(TCID50/ml) and 2.699 log10(TCID50/ml)"}, {"measurement": "Swab Titration, Mean Diff, untreated vs. treated", "setting": "[1]; untreated vs. prophylactic, Row 1 (0 d)", "value": "0 log10(TCID50/ml)"}, {"measurement": "Swab Titration, Mean Diff, untreated vs. treated", "setting": "[1]; untreated vs. prophylactic, Row 2 (3 d)", "value": "0 log10(TCID50/ml)"}, {"measurement": "Swab Titration, Mean Diff, untreated vs. treated", "setting": "[1]; untreated vs. prophylactic, Row 3 (7 d)", "value": "1.98 log10(TCID50/ml)"}, {"measurement": "Swab Titration, Mean Diff, untreated vs. treated", "setting": "[1]; untreated vs. prophylactic, Row 4 (10 d)", "value": "2.423 log10(TCID50/ml)"}, {"measurement": "Swab Titration, Mean Diff, untreated vs. treated", "setting": "[1]; untreated vs. prophylactic, Row 5 (14 d)", "value": "0 log10(TCID50/ml)"}, {"measurement": "Swab Titration, Mean Diff, untreated vs. treated", "setting": "[1]; untreated vs. prophylactic, Row 6 (17 d)", "value": "0.1302 log10(TCID50/ml)"}, {"measurement": "Swab Titration, Mean Diff, untreated vs. treated", "setting": "[1]; untreated vs. therapeutic (d3), Row 1 (0 d)", "value": "0 log10(TCID50/ml)"}, {"measurement": "Swab Titration, Mean Diff, untreated vs. treated", "setting": "[1]; untreated vs. therapeutic (d3), Row 2 (3 d)", "value": "0 log10(TCID50/ml)"}, {"measurement": "Swab Titration, Mean Diff, untreated vs. treated", "setting": "[1]; untreated vs. therapeutic (d3), Row 3 (7 d)", "value": "1.247 log10(TCID50/ml)"}, {"measurement": "Swab Titration, Mean Diff, untreated vs. treated", "setting": "[1]; untreated vs. therapeutic (d3), Row 4 (10 d)", "value": "1.72 log10(TCID50/ml)"}, {"measurement": "Swab Titration, Mean Diff, untreated vs. treated", "setting": "[1]; untreated vs. therapeutic (d3), Row 5 (14 d)", "value": "0 log10(TCID50/ml)"}, {"measurement": "Swab Titration, Mean Diff, untreated vs. treated", "setting": "[1]; untreated vs. therapeutic (d3), Row 6 (17 d)", "value": "0.2467 log10(TCID50/ml)"}, {"measurement": "Swab Titration, Mean Diff, untreated vs. treated", "setting": "[1]; untreated vs. therapeutic (d7), Row 1 (0 d)", "value": "0 log10(TCID50/ml)"}, {"measurement": "Swab Titration, Mean Diff, untreated vs. treated", "setting": "[1]; untreated vs. therapeutic (d7), Row 2 (3 d)", "value": "0 log10(TCID50/ml)"}, {"measurement": "Swab Titration, Mean Diff, untreated vs. treated", "setting": "[1]; untreated vs. therapeutic (d7), Row 3 (7 d)", "value": "-0.2268 log10(TCID50/ml)"}, {"measurement": "Swab Titration, Mean Diff, untreated vs. treated", "setting": "[1]; untreated vs. therapeutic (d7), Row 4 (10 d)", "value": "1.893 log10(TCID50/ml)"}, {"measurement": "Swab Titration, Mean Diff, untreated vs. treated", "setting": "[1]; untreated vs. therapeutic (d7), Row 5 (14 d)", "value": "0 log10(TCID50/ml)"}, {"measurement": "Swab Titration, Mean Diff, untreated vs. treated", "setting": "[1]; untreated vs. therapeutic (d7), Row 6 (17 d)", "value": "0.2467 log10(TCID50/ml)"}, {"measurement": "Temperature, Mean Diff, untreated vs. prophylactic", "setting": "[2]; Row 1 (day 0)", "value": -1.35}, {"measurement": "Temperature, Mean Diff, untreated vs. therapeutic (d3)", "setting": "[2]; Row 1 (day 0)", "value": -0.9667}, {"measurement": "Temperature, Mean Diff, untreated vs. therapeutic (d7)", "setting": "[2]; Row 1 (day 0)", "value": -0.7167}, {"measurement": "Temperature, Mean Diff, untreated vs. prophylactic", "setting": "[2]; Row 2 (day 3)", "value": 0.5833}, {"measurement": "Temperature, Mean Diff, untreated vs. therapeutic (d3)", "setting": "[2]; Row 2 (day 3)", "value": -0.05}, {"measurement": "Temperature, Mean Diff, untreated vs. therapeutic (d7)", "setting": "[2]; Row 2 (day 3)", "value": -0.03333}, {"measurement": "Temperature, Mean Diff, untreated vs. prophylactic", "setting": "[2]; Row 3 (day 7)", "value": 1.2}, {"measurement": "Temperature, Mean Diff, untreated vs. therapeutic (d3)", "setting": "[2]; Row 3 (day 7)", "value": 0.5167}]}]}
